Data: patent US11427586B2, “1,2,4-oxadiazole derivatives as liver X receptor agonists” (NOVARTIS AG, priority 2019, dated 2022)
Read-outs that look alike come from different tables or passages of the source.

What was measured:
SCD1 = experiment: Measurement of SCD1 expression in SZ95-SCD1-HiBit cells (HiBiT assay); assay type: cell-based; conditions: Homo sapiens; for EC50: read-out: HiBit EC50
SZ95 sebocytes = experiment: Sentinel Lipid Assay (SLA), desaturation index in SZ95 sebocytes; assay type: cell-based; conditions: Homo sapiens, 72 h; for EC50: read-out: SLA EC50
Outline: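 SZ95 human sebocytes on fibronectin-coated plates, dosed 72 h at 37 °C with 1:3 dilutions from 10 μM; lipids extracted with deuterated triglyceride internal standards and quantified by LC-MS/MS (MRM) as 11 sentinel lipids. Desaturation index from elastic-net coefficients, normalized to DMSO; Amax relative to a reference LXR agonist.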

[1] = system: naive Sprague Dawley rats; experiment: In vivo measurement of lowered meibum melting temperature; set-up: species or system rat; conditions: for Change of Tm: meibum melting point versus vehicle, 1% suspension eye drops twice a day for fourteen days, rats; for meibum melting temperature (in words): rat eyes, concentration of 1%; for Mean ± SEM of Compound (meibum melting point): rat meibum, DSC peak temperature, 1% suspension as eye drops twice a day for fourteen days, in °C
Experimental: In Vivo Measurement of Lowered Meibum Melting Temperature
For compounds 8 and 57, the lowering of rat meibum melting temperature was measured in naive Sprague Dawley rats. The test animals were administered either vehicle, or a suspension of 1% of compound 8 or 1% of compound 57, as eye drops twice a day for fourteen days. The rat meibum was collected after administration of the compounds and analyzed by differential scanning calorimetry to measure the melting point. The lowering of meibum melting point in rats administered compound 8 or compound 57 was compared to the vehicle.
Melting properties of meibum were obtained using differential scanning calorimetry thermograms, recorded on a TA Discovery Q5000 (ThermoAnalytical). Samples were sealed in standard 40 μl aluminum pans and subjected to a heat-cool-heat cycle with melting temperatures being recorded on the second heating ramp. The samples were first heated to 150° C. at 30K/min then cooled −30° C. at 30K/min. Next, the sample was heated to 75° C. with an underlying heating rate of 2K/min, a period of modulation of 60 seconds and a temperature amplitude of modulation of 1° C. Dry N2 gas, at a flow rate of 50 mL/min was used to purge the DSC equipment during the measurement. Onset of melting and peak temperatures were recorded with peak temperature quoted as the melting point.
Results from the assay are shown Table 3 and in FIG. 4. Results were analyzed using an unpaired t test with Welch's correction.

[2] = 48 h, normalized Amax based on the reference compound Amax of 100%, read-out: HiBit Normalized Amax
[3] = SZ95-SCD1-HiBit cells, 48 h, SCD1 protein production, luminescence, initial dilution 1:3 in DMSO
[4] = SZ95-SCD1-HiBit cells, 48 h, compared to reference compound, read-out: HiBit Amax
[5] = normalized Amax based on the reference compound Amax of 100%, read-out: SLA Normalized Amax
[6] = SZ95 cells, desaturation index, lowest dose used 4.6 nM
[7] = SZ95 cells, compared to reference compound, read-out: SLA Amax
[8] = 48 h, read-out: HiBit Normalized Amax

Row | Compound | EC50 (SCD1; [3]) [nM] | EC50 (SZ95 sebocytes; [6]) [nM] | EC50 (SCD1; footnote a: initial dilution for the compound 1:100 in assay medium rather than 1:3 in DMSO) [nM] | Emax (SCD1; [2]) [%] | Emax (SCD1; [4]) [%] | Emax (SZ95 sebocytes; [5]) [%] | Emax (SZ95 sebocytes; [7]) [%] | Change of Tm [1] | meibum melting temperature (in words) [1] | Mean ± SEM of Compound (meibum melting point) [1] | Emax (SCD1; 48 h, read-out: HiBit Amax) [%] | EC50 (SCD1; 48 h) [nM] | Emax (SCD1; [8]) [%] | Emax (SZ95 sebocytes; read-out: SLA Amax) [%] | EC50 (SZ95 sebocytes) [nM] | Emax (SZ95 sebocytes; read-out: SLA Normalized Amax) [%]
1 | CC(COc1ccc(-c2noc(CN3C(=O)N(CCC4CCOCC4)C4(CCN(C5CCC5)CC4)C3=O)n2)cc1C(F)(F)F)(C(F)(F)F)C(F)(F)F [Compound 63, 8-cyclobutyl-1-(2-(tetrahydro-2H-pyran-4-yl)ethyl)-3-((3-(4-(3,3,3-trifluoro-2-methyl-2-(trifluoromethyl)propoxy)-3-(trifluoromethyl)phenyl)-1,2,4-oxadiazol-5-yl)methyl)-1,3,8-triazaspiro[4.5]decane-2,4-dione] | – | – | – | – | – | – | – | – | – | – | 74.6 | 0.217 | 78.4 | 72.2 | ≤ 4.6 | 75.2
2 | CC1(C)C(=O)N(Cc2nc(-c3ccc(Oc4ccccc4S(=O)(=O)CC4CCCO4)c(C(F)(F)F)c3)no2)C(=O)N1CCN1CCOCC1 (stereo not drawn) [Compound 64, 5,5-dimethyl-1-(2-morpholinoethyl)-3-((3-(4-(2-(((tetrahydrofuran-2-yl)methyl)sulfonyl)phenoxy)-3-(trifluoromethyl)phenyl)-1,2,4-oxadiazol-5-yl)methyl)imidazolidine-2,4-dione] | – | – | – | – | – | – | – | – | – | – | 97.9 | 0.063 | 103 | 154 | ≤ 4.6 | 160
3 | CC1(C)C(=O)N(Cc2nc(-c3ccc(Oc4cnccc4C(F)(F)F)c(C(F)(F)F)c3)no2)C(=O)N1CCN1CCOCC1 [Compound 65, 5,5-dimethyl-1-(2-morpholinoethyl)-3-((3-(3-(trifluoromethyl)-4-((4-(trifluoromethyl)pyridin-3-yl)oxy)phenyl)-1,2,4-oxadiazol-5-yl)methyl)imidazolidine-2,4-dione] | 15.1 | ≤ 4.6 | – | 69.8 | 66.4 | 108 | 104 | – | – | – | – | – | – | – | – | –
4 | CC1(C)NC(=O)N(Cc2nc(-c3ccc(Oc4ccccc4C(F)(F)F)c(C(F)(F)F)c3)no2)C1=O [Compound 71, 5,5-dimethyl-3-((3-(3-(trifluoromethyl)-4-(2-(trifluoromethyl)phenoxy)phenyl)-1,2,4-oxadiazol-5-yl)methyl)imidazolidine-2,4-dione] | – | > 10000 | 139 | 68.7 | 65.3 | 51.9 | 49.8 | – | – | – | – | – | – | – | – | –

Second part, led by results:

Row | EC50 (SCD1; [3]) [nM] | EC50 (SZ95 sebocytes; [6]) [nM] | EC50 (SCD1; footnote a: initial dilution for the compound 1:100 in assay medium rather than 1:3 in DMSO) [nM] | Compound | Emax (SCD1; [2]) [%] | Emax (SCD1; [4]) [%] | Emax (SZ95 sebocytes; [5]) [%] | Emax (SZ95 sebocytes; [7]) [%] | Change of Tm [1] | meibum melting temperature (in words) [1] | Mean ± SEM of Compound (meibum melting point) [1] | Emax (SCD1; 48 h, read-out: HiBit Amax) [%] | EC50 (SCD1; 48 h) [nM] | Emax (SCD1; [8]) [%] | Emax (SZ95 sebocytes; read-out: SLA Amax) [%] | EC50 (SZ95 sebocytes) [nM] | Emax (SZ95 sebocytes; read-out: SLA Normalized Amax) [%]
5 | 0.111 | ≤ 4.6 | – | CC(C)CS(=O)(=O)c1ccccc1Oc1ccc(-c2noc(CN3C(=O)N(CCN4CCOCC4)C4(CCN(C5CCC5)CC4)C3=O)n2)cc1C(F)(F)F [Compound 8, 8-cyclobutyl-3-((3-(4-(2-(isobutylsulfonyl)phenoxy)-3-(trifluoromethyl)phenyl)-1,2,4-oxadiazol-5-yl)methyl)-1-(2-morpholinoethyl)-1,3,8-triazaspiro[4.5]decane-2,4-dione] | 120 | 114 | 230 | 221 | −1.977 ± 0.3731 | decrease | 28.29 ± 0.2920 | – | – | – | – | – | –
6 | 0.217 | ≤ 4.6 | – | CC(C)CS(=O)(=O)c1ccccc1Oc1ccc(-c2noc(CN3C(=O)N(CCN4CCOCC4)C(C)(C)C3=O)n2)cc1C(F)(F)F [Compound 57, 3-((3-(4-(2-(isobutylsulfonyl)phenoxy)-3-(trifluoromethyl)phenyl)-1,2,4-oxadiazol-5-yl)methyl)-5,5-dimethyl-1-(2-morpholinoethyl)imidazolidine-2,4-dione] | 88.4 | 84.1 | 176 | 169 | −2.181 ± 0.3731 | decrease | 28.08 ± 0.2945 | – | – | – | – | – | –
7 | 187 | 21.1 | – | CC1(C)C(=O)N(Cc2nc(-c3ccc(OCCC(F)(F)F)c(C(F)(F)F)c3)no2)C(=O)N1CCN1CCOCC1 [Compound 66, 5,5-dimethyl-1-(2-morpholinoethyl)-3-((3-(3-(trifluoromethyl)-4-(3,3,3-trifluoropropoxy)phenyl)-1,2,4-oxadiazol-5-yl)methyl)imidazolidine-2,4-dione] | 82.3 | 78.2 | 99 | 95.1 | – | – | – | – | – | – | – | – | –
8 | 3.94 | ≤ 4.6 | – | CC(C)CS(=O)(=O)c1ccccc1Oc1ccc(-c2noc(CN3C(=O)N(CCN4CCOCC4)C4(CCN(C(=O)CCCCC(=O)O)CC4)C3=O)n2)cc1C(F)(F)F [Compound 67, 6-(3-((3-(4-(2-(isobutylsulfonyl)phenoxy)-3-(trifluoromethyl)phenyl)-1,2,4-oxadiazol-5-yl)methyl)-1-(2-morpholinoethyl)-2,4-dioxo-1,3,8-triazaspiro[4.5]decan-8-yl)-6-oxohexanoic acid] | 88.9 | 84.5 | 103 | 99.1 | – | – | – | – | – | – | – | – | –
9 | 65.4 | 87.3 | – | O=C(O)Cc1cccc(OCCCN(Cc2cccc(C(F)(F)F)c2Cl)CC(c2ccccc2)c2ccccc2)c1 [Reference Compound, 2-(3-(3-((2-chloro-3-(trifluoromethyl)benzyl)(2,2-diphenylethyl)amino)propoxy)phenyl)acetic acid, reference compound] | 100 | 95.1 | 100 | 96 | – | – | – | – | – | – | – | – | –
